Results published in US20090118253A1, “COMPOSITIONS AND METHODS FOR TREATING DYSFUNCTIONAL UTERINE BLEEDING” (REPROS THERAPEUTICS INC., priority 2007, published 2009).

Legend:
[1] = target: T1, glucocorticoid receptor (rbGR) (Oryctolagus cuniculus, UniProt P59667); assay: Glucocorticoid receptor binding / anti-glucocorticoid receptor activity; set-up: species or system rabbit
T1 construct: cytosol containing PR or GR were prepared in TEGMD buffer; from tissue; host or cells: thymus of estradiol-primed immature rabbits (cytosol)
T1 sequence (P59667 1-772): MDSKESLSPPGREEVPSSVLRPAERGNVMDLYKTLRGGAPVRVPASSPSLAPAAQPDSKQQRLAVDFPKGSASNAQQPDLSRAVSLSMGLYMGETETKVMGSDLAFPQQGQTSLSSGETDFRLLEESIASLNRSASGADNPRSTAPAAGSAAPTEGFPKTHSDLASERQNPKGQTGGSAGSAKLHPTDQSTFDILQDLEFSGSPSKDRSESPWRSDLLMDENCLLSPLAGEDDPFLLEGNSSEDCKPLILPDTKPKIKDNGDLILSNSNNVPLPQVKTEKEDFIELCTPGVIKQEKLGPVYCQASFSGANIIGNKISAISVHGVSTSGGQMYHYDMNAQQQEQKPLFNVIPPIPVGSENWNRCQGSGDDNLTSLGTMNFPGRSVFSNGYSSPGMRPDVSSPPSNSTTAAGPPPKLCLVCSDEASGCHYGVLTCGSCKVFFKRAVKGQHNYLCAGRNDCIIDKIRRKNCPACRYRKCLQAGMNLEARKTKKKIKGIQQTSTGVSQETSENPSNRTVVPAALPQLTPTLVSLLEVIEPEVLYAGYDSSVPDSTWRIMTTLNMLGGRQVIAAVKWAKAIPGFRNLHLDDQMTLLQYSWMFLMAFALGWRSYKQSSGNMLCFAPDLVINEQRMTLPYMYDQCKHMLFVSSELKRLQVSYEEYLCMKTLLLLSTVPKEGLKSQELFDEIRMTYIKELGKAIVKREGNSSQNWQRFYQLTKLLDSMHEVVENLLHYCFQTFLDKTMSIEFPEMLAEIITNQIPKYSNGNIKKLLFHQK
Protocol: Certain antiprogestins were tested in receptor-binding assays for their ability to bind rabbit progesterone receptor (rbPR) and glucocorticoid receptor (rbGR). […] For PR binding, the cytosol was incubated with 6 nM 1,2-[^3H]progesterone (50.0 Ci/mmole) and competitors were added at concentrations from 2 to 100 nM. For binding to GR, the cytosol was incubated with 6 nM 6,7-[^3H]-dexamethasone (40 Ci/mmol) and test compounds were added at concentrations from 20 to 100 nM. After overnight incubation at 4 C, bound and unbound [^3H] steroids were separated by addition of dextran-coated charcoal and centrifugation at 2100×g for 15 min at 4 C. Supernatants containing the [3H]-steroid receptor complexes were decanted into vials containing 4 ml Optifluor (Packard Instrument Co.), vortexed, equilibrated in a liquid scintillation counter for 30 minutes and then counted for 2 minutes. […] The standards for the PR and GR assays were unlabeled progesterone and dexamethasone, respectively.

[2] = test system: rabbit progesterone receptor (rbPR) and glucocorticoid receptor (rbGR); assay: Receptor-binding assays, ratio of relative binding affinities rbPR/rbGR; details: ratio of relative binding affinities (RBA = EC50 of standard/EC50 of test compound x 100) for rbPR and rbGR
Protocol: Certain antiprogestins were tested in receptor-binding assays for their ability to bind rabbit progesterone receptor (rbPR) and glucocorticoid receptor (rbGR). Briefly, cytosol containing PR or GR were prepared in TEGMD buffer (10 mM Tris, pH 7.2, 1.5 mM EDTA, 0.2 mM sodium molybdate, 10% glycerol, 1 mM DTT) from uterus or thymus, respectively, of estradiol-primed immature rabbits. For PR binding, the cytosol was incubated with 6 nM 1,2-[^3H]progesterone (50.0 Ci/mmole) and competitors were added at concentrations from 2 to 100 nM. For binding to GR, the cytosol was incubated with 6 nM 6,7-[^3H]-dexamethasone (40 Ci/mmol) and test compounds were added at concentrations from 20 to 100 nM. After overnight incubation at 4 C, bound and unbound [^3H] steroids were separated by addition of dextran-coated charcoal and centrifugation at 2100×g for 15 min at 4 C. Supernatants containing the [3H]-steroid receptor complexes were decanted into vials containing 4 ml Optifluor (Packard Instrument Co.), vortexed, equilibrated in a liquid scintillation counter for 30 minutes and then counted for 2 minutes. The EC50 (Effective Concentration) for each standard curve and each of the compound curves was determined by entering the counting data into a four parameter sigmoidal computer program (RiaSmart® Immunoassay Data Reduction Program, Packard Instrument Co., Meriden, Conn.). Relative binding affinity (RBA) for each compound was calculated using the following equation: EC50 of standard/EC50 of test compound×100. The standards for the PR and GR assays were unlabeled progesterone and dexamethasone, respectively. The results of these experiments are summarized in Table 1, as a ratio of the relative binding affinities of each compound for the rbPR and rbGR receptors (rbPR/rbGR).

[3] = test system: progesterone-induced endometrial glandular proliferation in rabbit uterus; assay: anti-McGinty and anti-Clauberg assays in the rabbit uterus; format: in vivo; details: for rabbit Biol. Act.: average of anti-McGinty and anti-Clauberg results relative to CDB-2914 (=1.00)
Excerpt: Also given in Table 1 are the relative biological activities of the same compounds in the rabbit uterus by the anti-McGinty and anti-Clauberg assays. Compound CDB-2914 (listed at the end of the Table) was used as the control or reference compound (rabbit Biological Activity=1.00) for these experiments because results of experiments using CDB-2914 have been published before (Hild-Petito et al., 1996; Passaro et al., 1997; Reel et al., 1998; Lamer et al., 2000). For the anti-McGinty test, immature female rabbits received a subcutaneous injection of 5 μg estradiol in 10% ethanol/sesame oil daily for 6 consecutive days. On day 7, animals underwent sterile abdominal surgery to ligate a 3-4 cm segment of both uterine horns. The test compound in appropriate solvent was injected intraluminally into the ligated segment of one uterine horn and vehicle alone into the other. A stimulating dose of progesterone (267 μg/day) was administered subcutaneously to each rabbit daily for the next three days to induce endometrial proliferation. All animals were sacrificed at day 10 for removal of the uterus where a segment central to the ligatures was removed and fixed in 10% neutral buffered formalin and submitted for histological processing. Five micron sections stained with hematoxylin and cosin were evaluated microscopically for the degree of endometrial glandular proliferation. The percent inhibition of endometrial proliferation for each rabbit was calculated and the mean of the group of five animals recorded. For the Anti-Clauberg test, immature female rabbits received a subcutaneous injection of 5 μg estradiol in 10% ethanol/sesame oil daily for 6 consecutive days. On day 7, animals received progesterone by subcutaneous injection (160 μg/day) and the experimental compound in appropriate vehicle orally or subcutaneously for five consecutive days. One group of rabbits received progesterone only. Twenty-four hours after the last dose, all animals were sacrificed for removal of the uterus which was cleaned of all fat and connective tissue, weighed to the nearest 0.2 mg and placed in 10% neutral buffered formalin for subsequent histological processing. Five micron sections stained with hematoxylin and eosin were evaluated microscopically for the degree of endometrial glandular proliferation. The percent inhibition of endometrial proliferation at each dose level of the test compound was derived by comparison with progesterone-stimulated animals alone. The data presented in Table 1 (rabbit Biol. Act.) reflects the average of the results obtained for each compound by the anti-McGinty and anti-Clauberg assays relative to CDB-2914.

Serum cortisol in rats = format: in vivo, rat; details: 10 mg/kg, 21 days of chronic dosing
Protocol: These higher levels were in the range of 3-4 ug/dl (30-40 ng/ml).

[4] = Estrogenic, androgenic, anti-estrogenic and anti-androgenic activities
[5] = Urinary estrogen levels (follicular phase) in cynomolgus monkeys; format: in vivo, Cynomolgus monkeys (Macaca fascicularis); set-up: Urinary estrogen, follicular phase, Mean: unit not given here; details: for Urinary estrogen, follicular phase, Mean: CDB-4124 or RU-486 oral 1.0 mg/kg/day, Lupron IM once per month
Protocol: (§1) Cynomolgus monkeys (Macaca fascicularis) (n=14) were treated orally for 36 weeks with CDB-4124 or RU-486 at 1.0 mg/kg/day or with placebo (control). Another group (n=14) received Lupron® IM once per month. Urinary progesterone levels were measured for each animal for one month during the middle of the study (weeks 14-17) and for the last month of the study (weeks 33-36). The results are presented below:
Urinary estrogen levels were measured for each animal of Example 6 for one month during the middle of the study (weeks 14-17) and for the last month of the study (weeks 33-36). The follicular phase results are based on 35 baseline ovulating cycles.

[6] = Urinary progesterone levels (luteal phase) in cynomolgus monkeys; format: in vivo, Cynomolgus monkeys (Macaca fascicularis); details: n=14 per group; CDB-4124 or RU-486 oral 1.0 mg/kg/day for 36 weeks; Lupron IM once per month
Protocol: as §1, with “33-36).” for “33-36). The results are presented below:”

[7] = test system: Cynomolgus monkey endometrial epithelium, uterus stroma and breast; assay: TUNEL apoptosis in cynomolgus monkey tissue; format: in vivo, Cynomolgus monkeys (Macaca fascicularis); details: week 36, percent apoptotic cells
Protocol: Apoptosis was assessed in tissue from the same animals on slides by the terminal deoxynucleotidyl transferase mediated dUTP-biotin nick end labeling (TUNEL) technique.

[8] = Serum corticosterone in rats; details: for differences in serum corticosterone between groups: CDB-4124 10 or 20 mg/kg, RU 486 10 mg/kg, progesterone 10 mg/kg
[9] = test system: Cynomolgus monkey endometrial epithelia, uterus stroma and breast; assay: BrdU incorporation, tissue proliferation in cynomolgus monkeys; format: in vivo, Cynomolgus monkeys (Macaca fascicularis); details: week 36, % cells positive for incorporation of BrdU, three animals per group
Protocol: At week 36, three animals from each group of Example 6 were injected within 24 hours of sacrifice with the thymidine analog bromodeoxyuridine (BrdU), a marker of proliferating cells and their progeny, to assess tissue proliferation. Full thickness uterine sections were stained and examined microscopically for evidence of proliferation in terms of the % cells positive for incorporation of BrdU: […]

For `CC(=O)O[C@]1(C(C)=O)CC[C@H]2[C@@H]3CCC4=CC(=O)CCC4=C3[C@@H](c3ccc(N(C)C)cc3)C[C@@]21C` [CDB-2914, 17α-acetoxy-11β-(4-N,N-dimethylaminophenyl)-19-norpregna-4,9-dien-3,20-dione, reference compound], the “anti-glucocorticoid receptor activity / glucocorticoid receptor binding” value [1] was “moderately active”, the rbPR/rbGR [2] was 1.07 and the “rabbit Biol. Act.” value [3] was 1.00.

With `CC(=O)OCC(=O)[C@@]1(OC(C)=O)CCC2C3CCC4=CC(=O)CCC4=C3C(c3ccc(N(C)C)cc3)C[C@@]21C` (stereo partly drawn) [CDB-4059, 21-acetoxy-17α-acetoxy-11β-(4 N,N-dimethylaminophenyl)-19-norpregna-4,9-diene-3,20-dione] the “levels of serum cortisol versus control group” value (Serum cortisol in rats) was “significantly higher”, the “anti-glucocorticoid receptor activity / glucocorticoid receptor binding” value [1] was “minimal anti-glucocorticoid receptor activity” and the rbPR/rbGR [2] was 1.89. For the same compound, the “estrogenic, androgenic, anti-estrogenic, and anti-androgenic activities” value [4] was “lack estrogenic, androgenic, anti-estrogenic, and anti-androgenic activities”, the “rabbit Biol. Act.” value [3] was 2.90 and the “antiprogestin activity in the rabbit uterus” value ([3]; in comparison to RU 486 and CDB-2914) was “strong antiprogestin activity”.

With `CC#C[C@]1(O)CC[C@H]2[C@@H]3CCC4=CC(=O)CCC4=C3[C@@H](c3ccc(N(C)C)cc3)C[C@@]21C` [RU 486, 11β-[p-(Dimethylamino)phenyl]-17β-hydroxy-17-(1-propynyl)estra-4,9-dien-3-one] the “levels of serum cortisol versus control group” value (Serum cortisol in rats) was “no significant difference”, the “anti-glucocorticoid receptor activity / glucocorticoid receptor binding” value [1] was “moderately active” and the “Follicular phase estrogen Lower?” value ([5]; Week 18) was “No”. The “Urinary estrogen, follicular phase, Mean” value ([5]; Week 18) was 67.4, the “Follicular phase estrogen Lower?” value ([5]; Week 36) was “No” and the “Urinary estrogen, follicular phase, Mean” value ([5]; Week 36) was 64.8. The “Decrease in luteal phase progesterone (number of animals)” value [6] was 9, the “No decrease in luteal phase progesterone (number of animals)” value [6] was 5 and the “Breast Apo %” value [7] was 1.2 ± 0.6%. The “Uterus epithelium Apo %” value [7] was 0.5 ± 0.1%, the “Uterus stroma Apo %” value [7] was 0.5 ± 0.1% and the “differences in serum corticosterone between groups” value [8] was “No differences”. For the same compound, the “Breast Brdu-%” value [9] was 0.9 ± 0.3%, the “Uterus epithelium Brdu-%” value [9] was 12.6 ± 1.8% and the “Uterus stroma Brdu-%” value [9] was 3.1 ± 1.0%.

With `CC(=O)[C@H]1CC[C@H]2[C@@H]3CCC4=CC(=O)CC[C@]4(C)[C@H]3CC[C@]12C` [progesterone] the “differences in serum corticosterone between groups” value [8] was “No differences” and the “levels of corticosterone in animals treated with exogenous progesterone” value ([8]; after 21 days of treatment, p=0.029, not verified at sacrifice) was “lowered”.
